This assay relates to HCV 1a genotype replicon (Huh-1a7 cell line, strain H77). The assay can be described thus: HCV Replicon Assay qRT-PCR, genotype 1a. It is filed as cell-based. Particulars: Hepatitis C virus, read-out: 1a EC50. The text has this: HCV replicon cell lines (kindly provided by R. Bartenschlager) isolated from colonies as described by Lohman et al. (Lohman et al. (1999) Science 285: 110-113, expressly incorporated by reference in its entirety) and used for all experiments. One of the HCV replicon cell lines (strain Conl, genotype 1b) has the nucleic acid sequence set forth in EMBL Accession No.: AJ242651, the coding sequence of which is from nucleotides 1801 to 8406. Another replicon cell line (strain H77, genotype 1a) was constructed as described by Yi et. al. (Yi et. al. (2004) Journal of Virology 78(15):7904-15). […]
EC50 values of single agent compounds were determined by HCV RNA detection using quantitative RT-PCR, according to the manufacturer's instructions, with a TAQMAN® One-Step RT-PCR Master Mix Reagents Kit (Cat#AB 4309169, Applied Biosystems) on an ABI Model 7500 thermocycler. EC50 values of combinations are similarly determined by HCV RNA detection using quantitative RT-PCR. The TAQMAN primers to use for detecting and quantifying HCV RNA obtained from Integrated DNA Technologies. HCV RNA is normalized to GAPDH RNA levels in drug-treated cells, which is detected and quantified using the Human GAPDH Endogenous Control Mix (Applied Biosystems, AB 4310884E). […] Chemical agent cytotoxicity is evaluated using an MTS assay according to the manufacturer's directions (Promega). […]

Turning to `[2H]c1cn([C@@H]2O[C@H](CO[P@@](=O)(N[C@@H](C)C(=O)OC(C)C)Oc3ccccc3)C(O)C2(C)F)c(=O)[nH]c1=O` (stereo partly shown) [Example 1], the EC50 fell in the range of 0.1 to 1 µM.
